We go through seven molecules from patent US20100056524A1, “Compound” (priority 2008, published 2010).

Molecules are shown by their SMILES. Structures can show the parent of a compound that is named as a salt. Where two headings read alike, the source gives them in different places.

The test addresses T1, TBK1 (Homo sapiens, UniProt Q9UHD2).
T1 construct: All protein kinases were of human origin and encoded full length proteins, unless indicated otherwise; His6; made in house; host or cells: insect Sf21 cells
T1 sequence (Q9UHD2 1-729): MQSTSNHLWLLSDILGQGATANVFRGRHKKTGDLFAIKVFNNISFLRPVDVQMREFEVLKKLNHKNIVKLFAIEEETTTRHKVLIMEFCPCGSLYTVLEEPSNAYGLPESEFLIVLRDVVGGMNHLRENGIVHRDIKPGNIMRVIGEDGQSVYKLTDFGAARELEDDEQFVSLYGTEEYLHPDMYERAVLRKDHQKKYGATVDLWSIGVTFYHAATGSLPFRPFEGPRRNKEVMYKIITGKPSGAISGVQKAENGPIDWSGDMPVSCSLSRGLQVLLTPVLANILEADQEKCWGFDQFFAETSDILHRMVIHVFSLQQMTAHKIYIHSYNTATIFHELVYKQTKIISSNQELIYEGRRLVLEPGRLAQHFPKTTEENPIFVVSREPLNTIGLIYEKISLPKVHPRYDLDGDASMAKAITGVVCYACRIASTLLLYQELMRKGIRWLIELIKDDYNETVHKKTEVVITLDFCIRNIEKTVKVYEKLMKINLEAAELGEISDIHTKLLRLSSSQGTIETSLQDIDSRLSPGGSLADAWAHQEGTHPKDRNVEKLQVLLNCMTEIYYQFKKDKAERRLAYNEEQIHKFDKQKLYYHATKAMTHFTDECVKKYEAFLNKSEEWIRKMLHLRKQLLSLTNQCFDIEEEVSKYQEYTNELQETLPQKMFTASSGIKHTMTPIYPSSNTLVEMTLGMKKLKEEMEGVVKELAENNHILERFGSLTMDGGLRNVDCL
Nature of the test: TBK1 protein kinase assay ([γ-33P]ATP, P81 filterplates). Format: biochemical. As to conditions: for IC50: 50 μM ATP. In short, it runs like this: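 Human TBK1 assayed for 30 min with peptide substrate (300 μM), 50 μM [γ-33P]ATP and 10 mM magnesium acetate in 50 mM Tris/HCl pH 7.5, 0.1 mM EGTA, 0.1% 2-mercaptoethanol. Stopped with orthophosphoric acid and counted on P81 filters. IC50 from 10 compound concentrations.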

[1] abbreviates: read-out: Potency (TBK1 IC50 potency score).

As usually defined, the IC50 is the point on the concentration scale where inhibition reaches its midpoint. On to `CN(CCCNC(=O)C1CCC1)c1nc(Nc2cccc(F)c2)ncc1C1CC1` [Example 106, Cyclobutanecarboxylic acid (3-{[5-cyclopropyl-2-(3-fluoro-phenylamino)-pyrimidin-4-yl]-methyl-amino}-propyl)-amide], for which the IC50 under setting [1] lay within 100 to 1000 nM.

Take `CCc1cnc(Nc2cccc(F)c2)nc1NCCCNC(=O)C1CCC1` [Compound D, cyclobutanecarboxylic acid {3-[5-ethyl-2-(3-fluoro-phenylamino)-pyrimidin-4-ylamino]-propyl}-amide, reference compound]: the IC50 (Table 5, read-out: TBK1 IC50) turned out to be 42 nM. In addition, for the setting “from TBK1 IC50 values of Table 5”, the “fold loss in activity against TBK1 compared to Example 23” value worked out at 10 fold.

Turning to `O=C(NCCCNc1nc(Nc2ccc3nccnc3c2)ncc1C1CC1)C1CCC1` [Example 190, Cyclobutanecarboxylic acid {3-[5-cyclopropyl-2-(quinoxalin-6-ylamino)-pyrimidin-4-ylamino]-propyl}-amide], under setting [1], the IC50 was below 100 nM.

Turning to `Cc1ccc(Nc2ncc(C3CC3)c(NCCCNC(=O)c3cccs3)n2)cn1` [Example 30, Thiophene-2-carboxylic acid {3-[5-cyclopropyl-2-(6-methyl-pyridin-3-ylamino)-pyrimidin-4-ylamino]-propyl}-amide], the IC50 under setting [1] lay within 1000 to 10000 nM.

Take `CN1CCN(Cc2cccc(Nc3ncc(C4CC4)c(NCCCNC(=O)C4CCC4)n3)c2)CC1` [Example 122, Cyclobutanecarboxylic acid (3-{5-cyclopropyl-2-[3-(4-methyl-piperazin-1-ylmethyl)-phenylamino]-pyrimidin-4-ylamino}-propyl)-amide]: the IC50 under setting [1] is below 100 nM.

`O=C(NCCCNc1nc(Nc2ccc(-c3ccncc3)nc2)ncc1C1CC1)C1CCC1` [Example 119, Cyclobutanecarboxylic acid {3-[2-([2,4′]bipyridinyl-5-ylamino)-5-cyclopropyl-pyrimidin-4-ylamino]-propyl}-amide]: the IC50 under setting [1] was below 100 nM.

`CC(=O)Nc1cccc(Nc2ncc(C3CC3)c(NCCCN3CCCC3=O)n2)c1` [Example 39, N-(3-{5-Cyclopropyl-4-[3-(2-oxo-pyrrolidin-1-yl)-propylamino]-pyrimidin-2-ylamino}-phenyl)-acetamide trifluoroacetate salt]: the IC50 under setting [1] is 100 to 1000 nM.
